According to publication PMC8214221, “Sequence determinants in the cathelicidin LL-37 that promote inflammation via presentation of RNA to scavenger receptors” (The Journal of Biological Chemistry, 2021):
Residues, ends and D or L forms follow the SMILES beside them.

Key:
[1] = test system: NHEKs, differentially expressed genes; experiment: RNA-Seq transcriptomic profile of NHEKs; format: cell-based, human; conditions: U1 + peptide in comparison to U1 + LL-34 parent, protein-protein interaction networks from RNA-Seq
Source text: RNA-Seq was utilized to obtain a global transcriptomic profile and map unique immune pathways in NHEKs exposed to U1 dsRNA, LL-34 parent, Pep I24A, Pep L31A, and a combination of U1 dsRNA and LL-34 parent, Pep I24A, or Pep L31A. […] Similarly, 448 and 325 unique differentially regulated genes were observed after U1 + I24A and U1 + L31A treatments, respectively (Fig. 3, A and B and Fig. S2, A and B). […] These pathways included type 1 interferon signaling, cytokine signaling, response to external biotic stimulus, and cytokine-mediated signaling pathway. […] We verified the repression of mitochondrial antiviral signaling (MAVS) with immunoblot analysis. NHEKs were treated with U1 dsRNA, LL-34 parent, Pep I24A, Pep L31A, or with a combination of U1 and LL-34 parent, U1 and Pep I24A, or U1 and Pep L31A (Fig. 3E).
RNA was extracted using a PureLink RNA Mini Kit (Life Technologies). Isolated RNA was submitted to the UCSD IGM Genomics Center for RNA-Seq performed on a high-output run V4 platform (Illumina) with a single-read 100 cycle runs. Data alignment was done on Partek Flow software (Partek) with Tophat2 (version 2.0.8). Gene Ontology enrichment analysis was performed on differentially regulated genes (≥1.5-fold) using Partek Flow software. The protein–protein interaction network was generated in the InnateDB database ([44]).

[2] = test system: C57BL/6 mouse ear skin inflammation; experiment: Intradermal ear injection with U1 dsRNA in mice; format: in vivo; conditions: 24 h; for Gene expression of IL-6 and CXCL10 in mouse ears: C57BL/6 female mice, intradermal ear coinjection of 25 μg U1 dsRNA and 16 μM peptide, qRT-PCR, mutants compared with U1 dsRNA + LL-34 parent; for Mast cells in mouse ear skin (flow cytometry) / Macrophage and neutrophil recruitment in mouse ear skin (flow cytometry): C57BL/6 mice, intradermal coinjection of 25 μg U1 dsRNA and 16 μM peptide, n = 3; for Mast cells in mouse ear skin (flow cytometry): frequency of gated live cells; for Macrophage and neutrophil recruitment in mouse ear skin (flow cytometry): mutants compared with LL-34 parent + U1 dsRNA
Description: C57BL/6 female mice at 8 weeks old were injected in the ears intradermally with a single injection of 25 μg of U1 dsRNA and/or LL-34 parent, Pep I24A, or Pep L31A. We investigated gene expression of IL-6, CXCL10, and TSLP in these mice (Fig. 2, B–D). […] This was in agreement with the in vitro results (Fig. 1). We also looked at the infiltration of immune cells to the mouse ear skin with flow cytometry.
Figure 2 LL-34-I24A and LL-34-L31A peptides loose vetting activity in vivo. C57BL/6 mice ears were injected intradermally with either 25 μg of U1 dsRNA, 16 μM LL-34-parent, LL-34-I24A, and LL-34-L31A as shown in the figure for 24 h (n = 6). A, H&E staining of cross sections of mice injected with U1 dsRNA or LL-34 peptides is shown. The bar represents […]. B–D, gene expression changes for IL-6, CXCL10, and TSLP were assessed with qRT-PCR. GAPDH was used as a reference gene. E–G, flow cytometry analysis was performed to assess the infiltration of immune cells in mouse ears injected with U1 dsRNA alone or a combination of U1 dsRNA and LL-34 peptides. Data are represented as the frequency of gated live cells for mast cells, macrophages, and neutrophils. (n = 3) (∗p < 0.05; ∗∗p < 0.01; ∗∗∗p < 0.001; ∗∗∗∗p < 0.0001). One way-ANOVA was used. LL-34, 34-amino acid peptide; ns, not significant.
All mouse procedures were approved by the University of California, San Diego (UCSD) Institutional Animal Care and Use Program (protocol number: S09074). Eight-week-old female C57BL/6 wildtype mice were used for experiments. C57BL/6 mice ears were injected intradermally with U1 dsRNA and/or LL-34 peptides as described previously ([7]). Single injections were performed. A total of 30 μl was injected in the middle part of the ear. Twenty-four hours after the injection, mice were euthanized with CO2 asphyxiation and ears excised and immediately collected in cold RPMI complete medium on ice and processed for immunohistochemistry, gene expression analysis, and flow cytometry within 1 h.
Mouse ears were collected following euthanasia in cold complete RPMI media on ice and cut into small pieces within 60 min, then digested with 2.5 mg/ml collagenase D, and 30 ng/ml DNase1 for 2 h at 37 °C and then filtered through a 30 μm filter to generate single-cell suspension for fluorescence-activated cell sorting analyses. Cells were then stained with Fixable Viability Dye eFluor 506 (eBioscience; 65-0866-14) blocked with antimouse CD16/32 (eBioscience; 14016185, 1:50 dilution), followed by staining with antibody cocktails for immune cells. The antibody cocktail for immune cells included PECy7-CD11b (BioLegend; 101216, 1:200 dilution), FITC-Ly6G (eBioscience; 11593182, 1:150 dilution), PE-F4/80 (eBioscience; 12480182, 1:200 dilution), APC-CD11C (BioLegend; 117310, 1:100 dilution), AF700-MHCII (eBioscience; 56532182, 1:100 dilution), and c-Kit (Biolegend; 10581, 1:100 dilution). Fluorescence-activated cell sorting analyses for surface expression of immune cell markers were performed by the Biorad ZE5 machine and analyzed by FlowJo V10 software (BD Biosciences). Dead cells were gated out from the analyses.

In the case of `CC[C@H](C)[C@H](NC(=O)[C@H](CCCCN)NC(=O)[C@H](CCC(=O)O)NC(=O)[C@H](CCCCN)NC(=O)[C@H](CO)NC(=O)[C@H](CCCCN)NC(=O)[C@H](CCCNC(=N)N)NC(=O)[C@H](Cc1ccccc1)NC(=O)[C@H](Cc1ccccc1)NC(=O)[C@H](CC(=O)O)NC(=O)CNC(=O)[C@H](CC(C)C)NC(=O)[C@@H](N)CC(C)C)C(=O)NCC(=O)N[C@@H](CCCCN)C(=O)N[C@@H](CCC(=O)O)C(=O)N[C@@H](Cc1ccccc1)C(=O)N[C@@H](CCCCN)C(=O)N[C@@H](CCCNC(=N)N)C(=O)N[C@H](C(=O)N[C@H](C(=O)N[C@@H](CCC(N)=O)C(=O)N[C@@H](CCCNC(=N)N)C(=O)N[C@@H](C)C(=O)N[C@@H](CCCCN)C(=O)N[C@@H](CC(=O)O)C(=O)N[C@@H](Cc1ccccc1)C(=O)N[C@@H](CC(C)C)C(=O)N[C@@H](CCCNC(=N)N)C(=O)N[C@@H](CC(N)=O)C(=O)N[C@@H](CC(C)C)C(=O)N[C@H](C(=O)N1CCC[C@H]1C(=O)N[C@@H](CCCNC(=N)N)C(=O)O)C(C)C)C(C)C)[C@@H](C)CC` [LL-34—I24A] (H-LLGDFFRKSKEKIGKEFKRIVQRAKDFLRNLVPR-OH), the “Type I interferon signaling and RIGI antiviral pathway genes (STAT, ISG15, OAS1, IRF2, DDX58, MAVS)” value [1] is reported as “repressed”, the “Gene expression of IL-6 and CXCL10 in mouse ears” value [2] is reported as “significantly reduced” and the “Mast cells in mouse ear skin (flow cytometry)” value [2] is reported as “similarly increased mast cells”. For the same molecule, the “Macrophage and neutrophil recruitment in mouse ear skin (flow cytometry)” value [2] was “significant reduction in macrophage and neutrophil recruitment”.
In the case of `CC[C@H](C)[C@H](NC(=O)[C@H](CCCCN)NC(=O)[C@H](CCC(=O)O)NC(=O)[C@H](CCCCN)NC(=O)[C@H](CO)NC(=O)[C@H](CCCCN)NC(=O)[C@H](CCCNC(=N)N)NC(=O)[C@H](Cc1ccccc1)NC(=O)[C@H](Cc1ccccc1)NC(=O)[C@H](CC(=O)O)NC(=O)CNC(=O)[C@H](CC(C)C)NC(=O)[C@@H](N)CC(C)C)C(=O)NCC(=O)N[C@@H](CCCCN)C(=O)N[C@@H](CCC(=O)O)C(=O)N[C@@H](Cc1ccccc1)C(=O)N[C@@H](CCCCN)C(=O)N[C@@H](CCCNC(=N)N)C(=O)N[C@H](C(=O)N[C@H](C(=O)N[C@@H](CCC(N)=O)C(=O)N[C@@H](CCCNC(=N)N)C(=O)N[C@H](C(=O)N[C@@H](CCCCN)C(=O)N[C@@H](CC(=O)O)C(=O)N[C@@H](Cc1ccccc1)C(=O)N[C@@H](CC(C)C)C(=O)N[C@@H](CCCNC(=N)N)C(=O)N[C@@H](CC(N)=O)C(=O)N[C@@H](C)C(=O)N[C@H](C(=O)N1CCC[C@H]1C(=O)N[C@@H](CCCNC(=N)N)C(=O)O)C(C)C)[C@@H](C)CC)C(C)C)[C@@H](C)CC` [LL-34—L31A] (H-LLGDFFRKSKEKIGKEFKRIVQRIKDFLRNAVPR-OH), the “Gene expression of IL-6 and CXCL10 in mouse ears” value [2] is reported as “significantly reduced”, the “Mast cells in mouse ear skin (flow cytometry)” value [2] is reported as “significant decrease in mast cell number” and the “Macrophage and neutrophil recruitment in mouse ear skin (flow cytometry)” value [2] is reported as “significant reduction in macrophage and neutrophil recruitment”.
